# Measured values taken from patent US20240424112A1, “TETRAHYDROISOQUINOLINE COMPOUNDS THAT ARE KEAP1 BINDERS” (C4X Discovery Limited, priority 2021, published 2024).
# pEC50: −log10 of the molar value.
# Experiments:
# BRD4 long isoform = biological target: T1, BRD4 long isoform (Homo sapiens, UniProt O60885); assay: BRD4 degradation assay (Western blot, MDA-MB-468 cells), long isoform; assay type: cell-based; details: MDA-MB-468, n = 2
# T1 construct: endogenous in cells; host or cells: MDA-MB-468
# Experimental: (§1) BRD4 Degradation Assay Protocol Summary
# (§2) MDA-MB-468 cells were cultured routinely in DMEM supplemented with 10% heat inactivated FBS and 1% Penicillin-Streptomycin (Thermofisher Scientific) at 37° C. 5% CO2. Cells were seeded in 6-well plates at 4*10^5 cells per well and left to adhere overnight. Example compounds were solubilised in DMSO to make 10 mM stocks followed by serial dilutions in DMSO to 200× final concentration. These were further diluted in culture media to give 20× treatment stocks before addition to cells to a 1× final concentration. Cells were then incubated at 37° C. 5% CO2 for 24 or 48 hours after which cells were lysed in RIPA buffer supplemented with cOmplete Mini Protease Inhibitor Cocktail and PhosSTOP™ (Roche). Lysates were clarified by centrifugation at 13,000 RPM for 10 minutes and the protein concentration of the resulting supernatants determined by BCA assay (ThermoFisher Scientific) as per manufacturer's instructions. Lysates were denatured and reduced in NuPAGE LDS sample buffer and sample reducing agent before 10 μg was loaded onto NuPAGE […] Tris-Acetate Mini Protein Gels (ThermoFisher Scientific). Protein was transferred to nitrocellulose membranes using a Trans-Blot Turbo Transfer System (Bio-Rad) before blocking for 1 hour in Intercept (TBS) Blocking Buffer (Li-Cor). Membranes were then incubated overnight with BRD4 (ab128874; Abcam) and α-tubulin (T6074; Sigma-Aldrich) antibodies diluted 1:2000 and 1:16,000 respectively in Tris-buffered saline 0.05% Tween 20 (TBS-T). The following day, membranes were washed with TBS-T before addition of anti-rabbit IRDye 800 CW and anti-mouse IRDye 680LT secondary antibodies (LiCor) (diluted 1:10,000 in TBS-T) for one hour. Membranes were then washed with TBS-T before imaging using a LICOR Odyssey Infrared Imaging System with Image Studio Ver 5.2 software (LiCor). Densitometry analysis was carried out in the LiCor image studio software where BRD4 signal was normalised to α-tubulin signal. Percentage degradation of BRD4 relative to the DMSO treated negative control was calculated as: =100−(signal of interest/signal of control sample*100). BRD4 degradation by dBET1 was used as positive control for each plate. Data obtained for the percentage degradation of BRD4 upon treatment with the Example compounds 1-6 and Comparative Example compounds 1-3 at 24 hour incubation are shown in Table 2 and with 48 hour incubation are shown in Table 3.
# [1] = test system: NRF2 mediated gene NAD(P)H:quinone acceptor oxidoreductase 1 (NQO1) mRNA in BEAS-2B cells; assay: Beas2B NQO1 mRNA cell based assay; details: Homo sapiens, 24 h, vs vehicle (0.1% DMSO), read-out: EC50 (increase in NQO1 mRNA)
# Experimental: Beas2B NQO1 mRNA Cell Based Assay
# The up-regulation of the NRF2 mediated gene NAD(P)H:quinone acceptor oxidoreductase 1 (NQO1) was measured using the following assay method: BEAS-2B cells (ATCC CRL-9609) were plated in 96-well clear plates at 20,000 cells/well in 75 μL of cell culture media and incubated overnight (37° C., 5% CO2). On day 2, 25 μL of compound or controls were added to the cells for 24 h. On day 3, the medium was aspirated from the plate and the Cells-to-CT™ 1-Step TaqMan® Kit (Ambion A25603) was used to perform expression analysis directly from cultured cells without RNA purification according to the manufacturer's instructions.
# Briefly, cells were washed with ice cold PBS and 22.5 μL of room-temperature DNase/Lysis solution was added to the cells and incubated at room temperature for 5 minutes. To stop the reaction, 2.25 μL of stop solution was added to the cell lysate. The samples were diluted 1:5 using nuclease free water and 2.5 μL transferred into the PCR plate. Real-time PCR was performed using the C-1000 Thermal Cycler (Bio-Rad) using human beta actin as the internal control. The cDNA was amplified with a specific primer for NQO1 using the 1-step RT-PCR master mix (Ambion Cells-to-CT™ 1-Step TaqMan® Kit A25603). The primers/probes sets that were used for amplification of cDNA were obtained from TaqMan Gene Expression Assays (Applied Biosystems). The comparative CT (ΔΔCT) relative quantification method was used to calculate the relative mRNA level of the target gene NQO1 as described in the Applied Biosystems Chemistry Guide. The data are expressed as an increase in target gene mRNA compared to vehicle (0.1% DMSO) control and the EC50 values were determined by fitting the data to a four parameter logistic fit using XLfit or XE Runner within ActivityBase.
# BRD4 short isoform = biological target: T2, BRD4 short isoform (Homo sapiens, UniProt O60885); assay: BRD4 degradation assay (Western blot, MDA-MB-468 cells), short isoform; assay type: cell-based; details: MDA-MB-468, n = 2
# T2 construct: endogenous in cells; host or cells: MDA-MB-468
# Experimental: as §1, §2
Compound,"% Mean Degradation of BRD4 (BRD4 long isoform; 24 h, 0.1 μM) [%]","% Mean Degradation of BRD4 (BRD4 long isoform; 24 h, 1 μM) [%]","% Mean Degradation of BRD4 (BRD4 long isoform; 24 h, 5 μM) [%]","% Mean Degradation of BRD4 (BRD4 long isoform; 48 h, 0.1 μM) [%]","% Mean Degradation of BRD4 (BRD4 long isoform; 48 h, 1 μM) [%]","% Mean Degradation of BRD4 (BRD4 long isoform; 48 h, 5 μM) [%]","% Mean Degradation of BRD4 (BRD4 short isoform; 24 h, 0.1 μM) [%]","% Mean Degradation of BRD4 (BRD4 short isoform; 24 h, 1 μM) [%]","% Mean Degradation of BRD4 (BRD4 short isoform; 24 h, 5 μM) [%]","% Mean Degradation of BRD4 (BRD4 short isoform; 48 h, 0.1 μM) [%]","% Mean Degradation of BRD4 (BRD4 short isoform; 48 h, 1 μM) [%]","% Mean Degradation of BRD4 (BRD4 short isoform; 48 h, 5 μM) [%]",pEC50 [1]
"Cc1sc2c(c1C)C(c1ccc(Cl)cc1)=N[C@@H](CC(=O)NCCOCCNC(=O)[C@@]1(C)CCCC[C@H]1C(=O)N1CCc3c(Cl)ccc(OCc4nnn(C)c4C)c3[C@H]1CN1CC3(CC3)CC1=O)c1nnc(C)n1-2 [Comparative Example 2, (1S,2R)-2-((S)-5-chloro-8-((1,5-dimethyl-1H-1,2,3-triazol-4-yl)methoxy)-1-((6-oxo-5-azaspiro[2.4]heptan-5-yl)methyl)-1,2,3,4-tetrahydroisoquinoline-2-carbonyl)-N-(2-(2-(2-((S)-4-(4-chlorophenyl)-2,3,9-trimethyl-6H-thieno[3,2-f][1,2,4]triazolo[4,3-a][1,4]diazepin-6-yl)acetamido)ethoxy)ethyl)-1-methylcyclohexane-1-carboxamide, reference compound]",−33,3,14,−26,−61,−124,−6,9,26,−15,13,20,7.12
"Cc1sc2c(c1C)C(c1ccc(Cl)cc1)=N[C@@H](CC(=O)NCC(=O)NCCNC(=O)[C@@]1(C)CCCC[C@H]1C(=O)N1CCc3c(Cl)ccc(OCc4nnn(C)c4C)c3[C@H]1CN1CC3(CC3)CC1=O)c1nnc(C)n1-2 [Comparative Example 1, (1S,2R)-2-((S)-5-Chloro-8-((1,5-dimethyl-1H-1,2,3-triazol-4-yl)methoxy)-1-((6-oxo-5-azaspiro[2.4]heptan-5-yl)methyl)-1,2,3,4-tetrahydroisoquinoline-2-carbonyl)-N-(2-(2-(2-((S)-4-(4-chlorophenyl)-2,3,9-trimethyl-6H-thieno[3,2-f][1,2,4]triazolo[4,3-a][1,4]diazepin-6-yl)acetamido)acetamido)ethyl)-1-methylcyclohexane-1-carboxamide, reference compound]",11,18,5,−39,−27,−47,18,42,43,−11,24,28,6.67
"Cc1sc2c(c1C)C(c1ccc(Cl)cc1)=N[C@@H](CC(=O)NCCOCCOCCNC(=O)[C@@]1(C)CCCC[C@H]1C(=O)N1CCc3c(Cl)ccc(OCc4nnn(C)c4C)c3[C@H]1CN1CC3(CC3)CC1=O)c1nnc(C)n1-2 [Comparative Example 3, (1S,2R)-2-((S)-5-Chloro-8-((1,5-dimethyl-1H-1,2,3-triazol-4-yl)methoxy)-1-((6-oxo-5-azaspiro[2.4]heptan-5-yl)methyl)-1,2,3,4-tetrahydroisoguinoline-2-carbonyl)-N-(2-(2-(2-(2-((S)-4-(4-chlorophenyl)-2,3,9-trimethyl-6H-thieno[3,2-f][1,2,4]triazolo[4,3-a][1,4]diazepin-6-yl)acetamido)ethoxy)ethoxy)ethyl)-1-methylcyclohexane-1-carboxamide, reference compound]",34,45,49,13,30,20,5,31,18,23,32,−4,7.17

# More lines, main results first:
"% Mean Degradation of BRD4 (BRD4 long isoform; 24 h, 0.1 μM) [%]","% Mean Degradation of BRD4 (BRD4 long isoform; 24 h, 1 μM) [%]","% Mean Degradation of BRD4 (BRD4 long isoform; 24 h, 5 μM) [%]","% Mean Degradation of BRD4 (BRD4 long isoform; 48 h, 0.1 μM) [%]","% Mean Degradation of BRD4 (BRD4 long isoform; 48 h, 1 μM) [%]","% Mean Degradation of BRD4 (BRD4 long isoform; 48 h, 5 μM) [%]","% Mean Degradation of BRD4 (BRD4 short isoform; 24 h, 0.1 μM) [%]","% Mean Degradation of BRD4 (BRD4 short isoform; 24 h, 1 μM) [%]","% Mean Degradation of BRD4 (BRD4 short isoform; 24 h, 5 μM) [%]","% Mean Degradation of BRD4 (BRD4 short isoform; 48 h, 0.1 μM) [%]","% Mean Degradation of BRD4 (BRD4 short isoform; 48 h, 1 μM) [%]","% Mean Degradation of BRD4 (BRD4 short isoform; 48 h, 5 μM) [%]",Compound,pEC50 [1]
77,93,91,78,93,94,84,95,97,71,92,93,CNC(=O)[C@@]1(C)CCCC[C@H]1C(=O)N1CCc2c(Cl)ccc(OCc3nnn(CCNC(=O)CNC(=O)C[C@@H]4N=C(c5ccc(Cl)cc5)c5c(sc(C)c5C)-n5c(C)nnc54)c3C)c2[C@H]1CN1CC2(CC2)CC1=O [Example 2],6.34
9,52,95,−27,43,82,21,60,95,1,44,81,"Cc1sc2c(c1C)C(c1ccc(Cl)cc1)=N[C@@H](CC(=O)NCC(=O)NCCOCC(=O)N1CC[C@H](Oc3ccc(Cl)c4c3[C@@H](CN3CC5(CC5)CC3=O)N(C(=O)[C@@H]3CCCC[C@]3(C)C(=O)O)CC4)C1)c1nnc(C)n1-2 [Example 6, (1S,2R)-2-((S)-5-Chloro-8-(((S)-1-(2-(2-(2-(2-((S)-4-(4-chlorophenyl)-2,3,9-trimethyl-6H-thieno[3,2-f][1,2,4]triazolo[4,3-a][1,4]diazepin-6-yl)acetamido)acetamido)ethoxy)acetyl)pyrrolidin-3-yl)oxy)-1-((6-oxo-5-azaspiro[2.4]heptan-5-yl)methyl)-1,2,3,4-tetrahydroisoquinoline-2-carbonyl)-1-methylcyclohexane-1-carboxylic acid]",5.60
